The assay concerns PRKACA-PRKAR2A interaction (SmBiT-PRKACA / LgBiT-PRKAR2A), protein kinase A. Details: NanoLuc complementation counter-screen in cell extract, PRKACA with PRKAR2A, loss of luminescence, detects NanoLuc interference. The note with it: 0.5 h, 20 µM, inhibitor.
Setting [1] is: counter-screen for NanoLuc interference.

Each structure is given as a SMILES string. Counter-ions that a name gives are not always drawn. Like-named read-outs stand apart in the source and are kept apart here.

On to `COc1ccc(-c2ccc3c(N4CCOCC4)nc(N4C[C@@H](C)O[C@@H](C)C4)nc3n2)cc1CO` [UM0141868:01, KU-0063794], for which the “Inh (PKA)” value under setting [1] was determined as 1.476%.
On the same count and under the same terms, the value for `Cn1cc(-c2ccc3nnc(C(F)(F)c4ccc5ncccc5c4)n3n2)cn1` [UM0141869:01, JNJ-38877605] was 8.714%; that for `OCCn1cc(-c2cnc3nnn(Cc4ccc5ncccc5c4)c3n2)cn1` [UM0141870:01, PF-04217903] was 1.023%; that for `CCc1c2c(nc3ccc(OC(=O)N4CCC(N5CCCCC5)CC4)cc13)-c1cc3c(c(=O)n1C2)COC(=O)[C@]3(O)CC` [UM0141872:01, Irinotecan] was 0.8933%.
Regarding `O=C1NC(=O)/C(=C\c2ccc3nccnc3c2)S1` [UM0141873:01, AS-605240], the “Inh (PKA)” value under setting [1] came out at 0.3149%.
The same measure, in the same setting: the value for `COC(=O)[C@H](c1ccccc1Cl)N1CCc2sccc2C1` [UM0141874:01, Clopidogrel] was 72.93%.
For `C[C@H](Cn1cnc2c(N)ncnc21)OCP(=O)(O)O` [UM0141875:01, Tenofovir], the “Inh (PKA)” value under setting [1] is reported as -0.0985%.
With `O=P(O)(O)C(O)(Cc1cccnc1)P(=O)(O)O` [UM0141876:01, Risedronate Sodium], the “Inh (PKA)” value under setting [1] is given as -0.1627%.
`CNS(=O)(=O)Cc1ccc2[nH]cc(CCN(C)C)c2c1` [UM0141877:01, Sumatriptan Succinate]: under setting [1], the “Inh (PKA)” value was found to be 0.457%.
As to `CCOc1cc(CC(=O)N[C@@H](CC(C)C)c2ccccc2N2CCCCC2)ccc1C(=O)O` [UM0141879:01, Repaglinide], the “Inh (PKA)” value under setting [1] stood at 5.467%.
Take `COc1c(N2C[C@@H]3CCCN[C@@H]3C2)c(F)cc2c(=O)c(C(=O)O)cn(C3CC3)c12` [UM0141881:01, Moxifloxacin HCl]: the “Inh (PKA)” value under setting [1] turned out to be 1.366%.
The same measure, in the same setting: the value for `Cc1ccc(C(=O)N(CCCN)[C@@H](c2nc3cc(Cl)ccc3c(=O)n2Cc2ccccc2)C(C)C)cc1` [UM0141883:01, Ispinesib (SB-715992)] was 12.18%; that for `COc1ccc(C(CN(C)C)C2(O)CCCCC2)cc1` (stereo not drawn) [UM0141884:01, Venlafaxine] was -0.1027%; that for `CC(c1cc2ccccc2s1)N(O)C(N)=O` (stereo not drawn) [UM0141885:01, Zileuton] was 2.302%.
On the same count and under the same terms, the value for `c1cnc2cc3c(cc2n1)[C@@H]1CNC[C@H]3C1` [UM0141886:01, Varenicline Tartrate] was 1.343%.
Still for that read-out and setting: the value for `COc1ccc(S(=O)(=O)N(C(C)=O)c2ccccc2/C=C/c2cc[n+]([O-])cc2)cc1` [UM0141887:01, HMN-214] was 4.215%; that for `Nc1nc(F)nc2c1ncn2[C@@H]1O[C@H](CO)[C@@H](O)[C@@H]1O` [UM0141888:01, Fludarabine] was 1.153%; that for `CC(=O)Nc1nc(C)c(-c2ccc(Cl)c(S(=O)(=O)NCCO)c2)s1` [UM0141889:01, PIK-93] was 6.642%.
With `CCN1CCN(Cc2ccc(-c3cc4c(N[C@H](C)c5ccccc5)ncnc4[nH]3)cc2)CC1` [UM0141890:01, AEE788 (NVP-AEE788)], the “Inh (PKA)” value under setting [1] stood at 7.14%.
The same measure, in the same setting: the value for `CC(C)CC(=O)Nc1n[nH]c2c1CN(C(=O)C1CCN(C)CC1)C2(C)C` [UM0141891:01, PHA-793887] was 3.326%.
In the case of `Cc1ccc(C(=O)Nc2ccc(CN3CCN(C)CC3)c(C(F)(F)F)c2)cc1C#Cc1cnc2cccnn12` [UM0141892:01, Ponatinib (AP24534)], the “Inh (PKA)” value under setting [1] is 38.47%.
On the same count and under the same terms, the value for `Cc1cc([C@@H](C)Nc2ccccc2C(=O)O)c2nc(N3CCOCC3)cc(=O)n2c1` [UM0141893:01, AZD6482] was 55.75%; that for `O=C(NCc1ccccc1)c1csc(Nc2ccncn2)n1` [UM0141894:01, Thiazovivin] was -0.9736%.
Still for that read-out and setting: the value for `CC(C)(C)Cn1c(N)nc2ccc(-c3[nH]c(C(C)(C)C)nc3-c3ccc(F)cc3)nc21` [UM0141895:01, LY2228820] was 34.84%; that for `O=C(NC[C@H](O)CO)c1ccncc1Nc1ccc(I)cc1F` [UM0141896:01, Pimasertib (AS-703026)] was 20.8%.
On the same count and under the same terms, the value for `Cc1cccc(-c2[nH]c(C(C)(C)C)nc2-c2ccc3nccnc3c2)n1` [UM0141897:01, SB525334] was 4.915%; that for `CC1=C(C(=O)Nc2cc3cn[nH]c3cc2F)C(c2ccc(C(F)(F)F)cc2)CC(=O)N1` (stereo not drawn) [UM0141898:01, GSK429286A] was 8.844%.
In the case of `Clc1ccc(C2(c3ccc(-c4cn[nH]c4)cc3)CCNCC2)cc1` [UM0141900:01, AT7867], the “Inh (PKA)” value under setting [1] stood at 29.71%.
Same read-out and setting: the value for `CCOc1ccn(-c2ccc(F)cc2)c(=O)c1C(=O)Nc1ccc(Oc2ccnc(N)c2Cl)c(F)c1` [UM0141902:01, BMS-777607] was 68.15%.
On the same count and under the same terms, the value for `O=C(NOCC(O)CO)c1cc(Br)c(F)c(F)c1Nc1ccc(I)cc1F` (stereo not drawn) [UM0141903:01, PD318088] was 48.65%; that for `CCOC(=O)c1ccc(C#Cc2ccc3c(c2)C(C)(C)CCS3)nc1` [UM0141904:01, Tazarotene] was 17.58%.
For `O=C(NC1CCNCC1)c1n[nH]cc1NC(=O)c1c(Cl)cccc1Cl` [UM0141905:01, AT7519], the “Inh (PKA)” value under setting [1] is on record as 0.5831%.
On the same count and under the same terms, the value for `O=S(=O)(c1cccc2cnccc12)N1CCCNCC1` [UM0141906:01, Fasudil (HA-1077) HCl] was 33.96%; that for `CCCNC(=O)Nc1ccc(Oc2ncnc3cc(OC)c(OC)cc23)cc1Cl` [UM0141907:01, KRN 633] was 0.03165%; that for `O=C(O)c1cc(/N=N/c2ccc(S(=O)(=O)Nc3ccccn3)cc2)ccc1O` [UM0141908:01, Sulfasalazine] was 56.84%.
On the same count and under the same terms, the value for `Nc1ccn(C[C@@H](CO)OCP(=O)(O)O)c(=O)n1` [UM0141909:01, Cidofovir] was -0.4944%; that for `CN(C)Cc1cccc(N/C(=C2\C(=O)Nc3cc(C(N)=O)ccc32)c2ccccc2)c1` [UM0141912:01, BIX 02188] was 13.5%.
On to `CN1CCCCC1Cn1cc(C(=O)c2cc([N+](=O)[O-])ccc2I)c2ccccc21` (stereo not drawn) [UM0141913:01, AM1241], for which the “Inh (PKA)” value turned out to be 12.3%.
Consider `CCOc1ccc(Cc2cc([C@@H]3O[C@H](CO)[C@@H](O)[C@H](O)[C@H]3O)ccc2Cl)cc1` [UM0141914:01, Dapagliflozin], for which, under setting [1], the “Inh (PKA)” value is reported as 0.9919%.
On to `COc1cc(Nc2ncc(F)c(Nc3ccc4c(n3)NC(=O)C(C)(C)O4)n2)cc(OC)c1OC` [UM0141915:01, R406 (free base)], for which the “Inh (PKA)” value (counter-screen for NanoLuc interference, Inh (PKA)) is 51.96%.
On to `CCCCCCCCCCCCc1ccc(S(=O)(=O)Nc2nncs2)cc1` [UM0141916:01, PHT-427], for which the “Inh (PKA)” value under setting [1] was found to be 11.59%.
In the case of `Cc1nc(-c2ccc(OCC(C)C)c(C#N)c2)sc1C(=O)O` [UM0141917:01, Febuxostat], the “Inh (PKA)” value under setting [1] came to 17.81%.
On the same count and under the same terms, the value for `COc1ccc2cc(-c3nc(-c4ccc([S+](C)[O-])cc4)[nH]c3-c3ccncc3)ccc2c1` (stereo not drawn) [UM0141919:01, Tie2 kinase inhibitor] was 68.85%; that for `CN1C/C(=C/c2ccc(B(O)O)cc2)C(=O)/C(=C\c2ccc(B(O)O)cc2)C1` [UM0141922:01, AM 114] was 1.277%.
Still for that read-out and setting: the value for `NCCCC[C@@H]1NC(=O)[C@@H](Cc2ccccc2)NC(=O)[C@H](CC(=O)O)NC(=O)CNC(=O)[C@H](CCCN=C(N)N)NC1=O` [UM0141923:01, Cyclo (-RGDfK)] was -1.971%.

(Values after publication PMC9995496, “A screen for MeCP2-TBL1 interaction inhibitors using a luminescence-based assay” (Scientific Reports, 2023).)
